Laboratory results from ChEMBL document CHEMBL3301361, “Experimental in vitro DMPK and physicochemical data on a set of publicly disclosed compounds”.
In brackets after ≈: the same amount, converted by molar mass.

What was measured:
physchem [1] = details: pH 7.4 buffer
physchem [2] = details: octan-1-ol/water

Structure (SMILES)	solubility thermodynamic (physchem [1])	logD (physchem [2]; pH 7.4)	logD (physchem [2]; pH 7.4, LogD7.4)
CNC(=O)c1ccc(N2C(=S)N(c3ccc(C#N)c(C(F)(F)F)c3)C(=O)C23CCC3)cc1F	1.6 µM (≈ 0.762 µg/mL)	3.3	
Cc1nc(C)c(-c2ccc([C@H]3CC[C@@H](CC(=O)O)CC3)c(Cl)c2)nc1C(N)=O	200 µM (≈ 80.2 µg/mL)		1.7
CS(=O)(=O)C1(c2cc(N3CCOCC3)nc(-c3ccccc3)n2)CC1	8.9 µM (≈ 3.2 µg/mL)		2.6
NC(=O)COc1ccc(OCCNCC(O)COc2ccccc2)cc1 (stereo not given)	661 µM (≈ 238 µg/mL)		0.63
CS(=O)(=O)c1ccc([C@@H](CC2CCCC2)C(=O)Nc2cnc([C@H](O)CO)cn2)cc1Cl	468 µM (≈ 219 µg/mL)		2.58
CN(CCOc1ccc(C[C@H](Nc2ccccc2C(=O)c2ccccc2)C(=O)O)cc1)c1ccccn1	219 µM (≈ 108 µg/mL)		2.15
O=C1CN2Cc3c(ccc(Cl)c3Cl)N=C2N1 [ANAGRELIDE]	5.4 µM (≈ 1.38 µg/mL)		1.86
CC1(COc2cc(-c3cccc4c(=O)cc(N5CCOCC5)oc34)ccc2NC(=O)CN2CCOCC2)COC1	36.3 µM (≈ 20 µg/mL)		2.2
COc1ccc(CNCc2ccc(-c3cc(C(N)=O)c(NC(N)=O)s3)cc2)cc1	11.5 µM (≈ 4.72 µg/mL)		2.55
CC(=O)N1CCN(CCOc2cc(OC(C)C)c3c(Nc4c(F)ccc5c4OCO5)ncnc3c2)CC1	27.5 µM (≈ 14.1 µg/mL)		3.06
COc1ccc(-c2nc3n(c2Br)CCC3)cc1	25.1 µM (≈ 7.36 µg/mL)		3.3
C[C@@H](Oc1cccc2ncnc(Nc3ccc4c(cnn4Cc4cscn4)c3)c12)C(=O)N1CCOCC1	151 µM (≈ 78.1 µg/mL)		2.81
Cc1cc(NC(=O)c2ccccc2)n[nH]1	813 µM (≈ 164 µg/mL)		1.75
Oc1cccc2nc(-c3ccccc3)cc(O)c12	5 µM (≈ 1.19 µg/mL)		3.37
COc1cc2c(Nc3ncc(CC(=O)Nc4cccc(F)c4)s3)ncnc2cc1OCCCN1CCC(CO)CC1	26.9 µM (≈ 15.6 µg/mL)		2.89
COc1cc2ncnc(NCc3ccccc3)c2cc1OC	38.9 µM (≈ 11.5 µg/mL)		3.29
Clc1cc(Nc2ncnc3[nH]nc(OCCN4CCCC4)c23)ccc1OCc1ccccn1	12 µM (≈ 5.59 µg/mL)		2.87
CN1CCC(n2cc(-c3cnc(N)c(-c4nc5ccc(F)cc5o4)c3)cn2)CC1	13.5 µM (≈ 5.3 µg/mL)		3.35
Nc1nc(N)c2nc(-c3ccccc3)c(N)nc2n1	97.7 µM (≈ 24.7 µg/mL)		1.16
Cn1c(C#N)ccc1-c1ccc2c(c1)C(C)(C)OC(=O)N2	13.2 µM (≈ 3.71 µg/mL)		2.85
Cc1nc2ccc(Cl)cn2c1-c1ccnc(N)n1	759 µM (≈ 197 µg/mL)		2.49
COc1ccc(C(=O)C2CCN(C(=O)c3ccc(F)cc3)CC2)cc1	204 µM (≈ 69.7 µg/mL)		2.92
COc1cc(Nc2ncnc(Nc3c(Cl)ccc4c3OCO4)n2)cc(OC)c1OC	6.2 µM (≈ 2.68 µg/mL)		3.01

Structure (SMILES)	solubility thermodynamic (physchem [1])	logD (physchem [2]; pH 7.4)	logD (physchem [2]; pH 7.4, LogD7.4)
CCn1cc(NC(=O)Cc2ccc(Oc3ccnc4cc(OC)c(OC)cc34)cc2OC)cn1	22.9 µM (≈ 10.6 µg/mL)		3.42
CCn1c2nc(=O)n(C)c(=O)c-2cc2ccccc21	324 µM (≈ 82.6 µg/mL)		1.1
O=C(Nc1ccccc1O)c1cc([N+](=O)[O-])ccc1Cl	53.7 µM (≈ 15.7 µg/mL)		2.49
COc1cc(N2CCN(C(C)=O)CC2)ccc1Nc1ncc(C(F)(F)F)c(-c2cnc3ccccn23)n1	8.9 µM (≈ 4.55 µg/mL)		3.7
COc1cc(N2CCN(C(C)=O)CC2)ccc1Nc1ncc(OC)c(-c2cnc3ccccn23)n1	1.3 µM (≈ 0.616 µg/mL)		3.2
CCN(c1ccnc(Nc2cc(N3CCOCC3)cc(N3CCOCC3)c2)n1)c1cc(CO)ccc1C	72.4 µM (≈ 36.5 µg/mL)		3.8
N#Cc1ccc(CN2CCN(c3ccc4nnc(C(F)(F)F)n4n3)CC2)cc1	11.5 µM (≈ 4.45 µg/mL)		
O=C(NCc1ccccc1)c1ccc(=O)oc1	135 µM (≈ 30.9 µg/mL)		
C[C@@H](Oc1cccc2ncnc(Nc3ccc4c(cnn4Cc4ccccn4)c3)c12)C(N)=O	4 µM (≈ 1.76 µg/mL)		
O=C(NCCSCc1c(F)cccc1Cl)Nc1ccccc1	5.1 µM (≈ 1.73 µg/mL)		
c1ccc(-c2nnc(-c3ccccc3)o2)cc1	15.8 µM (≈ 3.51 µg/mL)		
CS(=O)(=O)Nc1cccc(Nc2nccc(Nc3c(Cl)ccc4c3OCO4)n2)c1	7.2 µM (≈ 3.12 µg/mL)		
CC(C)(C)c1csc(N2CCN(C(=O)[C@@H]3CCCC[C@H]3C(=O)NC3(C#N)CC3)CC2)n1	282 µM (≈ 125 µg/mL)		
COc1ccc(-c2cc(N)c(C(N)=O)s2)cc1	30.9 µM (≈ 7.67 µg/mL)		
CC(C)S(=O)(=O)C1(c2cc(N3CCOCC3)nc(-c3cccc4[nH]ccc34)n2)CC1	1.5 µM (≈ 0.64 µg/mL)		
O=C(O)c1c(Cl)c2ccccc2n1Cc1ccc(Cl)c(Cl)c1	759 µM (≈ 269 µg/mL)		
O=C(Nc1ccccc1)c1ccc(OCCCN2CCCC2)cc1OCc1ccccc1	61.7 µM (≈ 26.6 µg/mL)		
Cc1cc(C)cc(-c2[nH]c3sc(C(C)(C)C(=O)N4C5CCC4CC5)cc3c2[C@H](C)CNC(=O)N2CCC(c3ccncc3)CC2)c1	0.6 µM (≈ 0.383 µg/mL)		
O=C(c1ccccc1)C1CCN(C(=O)c2ccco2)CC1	427 µM (≈ 121 µg/mL)		
Cc1cccc(C)c1NC(=O)N1CCC(C(=O)c2ccc(F)cc2)CC1	18.6 µM (≈ 6.59 µg/mL)		
COc1cc2ncnc(Nc3cc(NC(=O)c4ccccc4)ccc3Cl)c2cc1OC	10 µM (≈ 4.35 µg/mL)		
COc1cc2c(Nc3ccc(Cl)cc3F)ncnc2cc1OC/C=C/CN1CCCC1	759 µM (≈ 336 µg/mL)		
O=C(Nc1cccc(O)c1)c1ccc(OCCCN2CCCC2)cc1OCc1ccccn1	513 µM (≈ 230 µg/mL)		

Structure (SMILES)	solubility thermodynamic (physchem [1])	logD (physchem [2]; pH 7.4)	logD (physchem [2]; pH 7.4, LogD7.4)
Cc1cc(C)cc(-c2[nH]c3ccc(C(C)(C)C(=O)N4C5CCC4CC5)cc3c2CCN(C)CCCCc2ccncc2)c1	0.9 µM (≈ 0.519 µg/mL)		
COc1ccc(Br)c(C=O)c1O	468 µM (≈ 108 µg/mL)		
OC1(C#Cc2ccc(-c3ccccc3)cc2)CN2CCC1CC2 (stereo not given)	14.8 µM (≈ 4.49 µg/mL)		
COc1cc2ncnc(Nc3cc(NC(=O)c4ccnc(N5CCOCC5)c4)ccc3C)c2cc1OCCN(C(C)C)C(C)C	240 µM (≈ 147 µg/mL)		
O=C(O)c1cc2c(F)cccc2n1Cc1ccc(Cl)c(Cl)c1	525 µM (≈ 177 µg/mL)		
CC(C)N1CCN(Cc2cnc(-c3ccc(C(=O)Nc4ccccc4N)cc3)c(C#N)c2)CC1	1350 µM (≈ 613 µg/mL)		
COCCNS(=O)(=O)c1ccc(Nc2nccc(-c3c(C)nc(C)n3C)n2)cc1	219 µM (≈ 91.1 µg/mL)		
CCC(C)(C)NC(=O)Cc1ccc(C)cc1	240 µM (≈ 52.6 µg/mL)		
CN(C)CCNS(=O)(=O)c1ccc(Nc2nccc(-c3cnc4ccccn34)n2)cc1	30.9 µM (≈ 13.5 µg/mL)		
COc1cc(Oc2ncnc3cc(OC)c(OC)cc23)ccc1CC(=O)Nc1cn(C)nc1C	1.8 µM (≈ 0.834 µg/mL)		
C[C@@H](Oc1cccc2ncnc(Nc3ccc4c(cnn4Cc4cccc(F)c4)c3)c12)C(=O)N(C)C	2.6 µM (≈ 1.26 µg/mL)		
O=C(Nc1ccccc1)N1CCN(c2ccccn2)CC1	170 µM (≈ 47.9 µg/mL)		
Cn1cnc(-c2cccc(NC(=O)Nc3cc(C(F)(F)F)ccc3F)c2)c1-c1cc2c(N)ncnc2s1	0.5 µM (≈ 0.264 µg/mL)		
Cc1ccccc1C(=O)NC1CCN(Cc2ccccc2)CC1	246 µM (≈ 75.7 µg/mL)		
N#Cc1ccccc1COc1cc(OCCCN2CCCC2)ccc1C(=O)Nc1ccccc1	34.7 µM (≈ 15.8 µg/mL)		
CC(=O)N1CCC(n2cc(-c3cnc(N)c(-c4nc5ccccc5o4)c3)cn2)CC1	1.7 µM (≈ 0.684 µg/mL)		
Cc1ccc(Oc2ccc(C(=O)N(C)Cc3ccncc3)cc2)cc1	1.9 µM (≈ 0.632 µg/mL)		
COC[C@H](C)Oc1cc(Oc2ccc(OC)cc2)cc(C(=O)Nc2ccc(C(=O)O)cn2)c1	1510 µM (≈ 685 µg/mL)		
COc1cc2ncnc(Nc3cccc(Cl)c3F)c2cc1CN(C)CC(N)=O	13.2 µM (≈ 5.33 µg/mL)		
Cc1[nH]c2ccccc2c1CC#N	1020 µM (≈ 174 µg/mL)		
Cc1cnc(NC(=O)c2ccccn2)s1	200 µM (≈ 43.7 µg/mL)		
CN(C)C(=O)[C@H](Cc1ccccc1)NC(=O)c1cc2cc(Br)sc2[nH]1	0.9 µM (≈ 0.378 µg/mL)		
N#CC1(NC(=O)[C@@H]2CCCC[C@H]2C(=O)N2CCc3[nH]c4cc(F)ccc4c3C2)CC1	537 µM (≈ 219 µg/mL)		

Structure (SMILES)	solubility thermodynamic (physchem [1])	logD (physchem [2]; pH 7.4)	logD (physchem [2]; pH 7.4, LogD7.4)
CCN(C(=O)Cc1ccc(S(C)(=O)=O)cc1)C1CCN(CCC(c2ccccc2)N2CCN(c3ccccc3)CC2)CC1 (stereo not given)	692 µM (≈ 417 µg/mL)		
COc1cc2c(Nc3cc(CC(=O)Nc4cccc(F)c4)[nH]n3)ncnc2cc1OCCCN1CCC[C@@H]1CO	162 µM (≈ 89.1 µg/mL)		
COc1cc2ncnc(Nc3ccc(F)c(Cl)c3)c2cc1OCCCN(C)C	1290 µM (≈ 522 µg/mL)		
Cc1ccc(SCc2cc(=O)n(C)[nH]2)cc1	1510 µM (≈ 355 µg/mL)		
CS(=O)(=O)c1cccc(Nc2nccc(Nc3c(Cl)ccc4c3OCO4)n2)c1	30.2 µM (≈ 12.6 µg/mL)		
Cc1cc2n[nH]c(=O)n2c2cc(-c3ccc([S+](C)[O-])cc3)ccc12 (stereo not given)	1.9 µM (≈ 0.641 µg/mL)		
CCOc1cc2ncc(C#N)c(Nc3ccc(F)c(Cl)c3)c2cc1NC(=O)/C=C/CN(C)C [PELITINIB]	1.5 µM (≈ 0.702 µg/mL)		
CN(C)CCCN(C)S(=O)(=O)c1ccc(Nc2nccc(-c3cnc4ccccn34)n2)cc1	309 µM (≈ 144 µg/mL)		
Cc1cc(O)nc(SCC(=O)c2ccccc2)n1	708 µM (≈ 184 µg/mL)		
COCCOc1cc2ncnc(Nc3ncc(CC(=O)Nc4cccc(F)c4)s3)c2cc1OC	0.6 µM (≈ 0.29 µg/mL)		
Cc1noc(C)c1CCC1CCN(S(=O)(=O)CC2(N(O)C=O)CCOC(C)(C)C2)CC1 (stereo not given)	851 µM (≈ 389 µg/mL)		
CO[C@@H]1CN(Cc2ccc(C(F)(F)F)cc2)CC[C@@H]1N(C)C(=O)Cc1ccc(-n2cnnn2)cc1	75.9 µM (≈ 37.1 µg/mL)		
COc1ccc(Cl)cc1NC(=O)c1cnccn1	12 µM (≈ 3.16 µg/mL)		
O=C(NC1CCCC1)C1CCCN(S(=O)(=O)c2cccc3cccnc23)C1 (stereo not given)	8.7 µM (≈ 3.37 µg/mL)		
CNC(=O)CCc1nc(-c2ccc(OC)cc2)no1	912 µM (≈ 238 µg/mL)		
COC[C@H](C)Oc1cc(Oc2cccc(F)c2)cc(C(=O)Nc2ccc(C(=O)O)cn2)c1	1380 µM (≈ 608 µg/mL)		
COc1ccc2[nH]c3c(c2c1)CN(C(=O)[C@@H]1CCCC[C@H]1C(=O)NC1(C#N)CC1)CC3	813 µM (≈ 342 µg/mL)		
COCCNS(=O)(=O)c1ccc(Nc2nccc(-c3cnc(C)n3C3CCCC3)n2)cc1	53.7 µM (≈ 24.5 µg/mL)		
CN(C)C(=O)c1nnsc1Sc1ccc(Cl)cc1	31.6 µM (≈ 9.47 µg/mL)		
O=C1CSc2ccccc2N1	871 µM (≈ 144 µg/mL)		
O=C(Cc1ccccc1)Nc1ccc(N2CCCC2)cc1	1.1 µM (≈ 0.308 µg/mL)		
c1ccc(-c2ccc(C(c3ccccc3)n3ccnc3)cc2)cc1 (stereo not given) [BIFONAZOLE]	1.1 µM (≈ 0.341 µg/mL)		
